Experimental data as given in ChEMBL document CHEMBL1201862, “PubChem BioAssay data set” (2004).
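Five compound concentrations were applied to cells in 96-well plates for 48 hours; endpoints were derived by simple linear interpolation of the resulting dose-response curve. GI50 is the concentration that inhibits growth by half.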 Calls of active or inactive are those of the source. No stated cut-off is given here; in the data, active = GI50 up to about 1.1 µM and inactive = higher.

Experiments:
Experiment in all cases: NCI tumour cell line growth inhibition, 48 h
[1] = test system: DLD-1
[2] = test system: DMS-273
[3] = test system: KM-20L2
[4] = test system: MDA-N
[5] = test system: T47D
[6] = test system: Hs-578T
[7] = test system: BT-549
[8] = test system: MDA-MB-231

Measured: GI50

CCCCCCCCCCOC(=O)c1cc[n+](C)cc1
inactive: [1] 18.5 µM | [2] 17.3 µM

O=C1Nc2ccc(Br)cc2/C1=N/Nc1ccc([N+](=O)[O-])cc1[N+](=O)[O-]
inactive: [1] 4.58 µM | [3] 3.14 µM

COc1ccc(/C=N/C23CC4CC(CC(C4)C2)C3)cc1
inactive: [3] > 100 µM | [2] > 10 µM

COC(OC)c1cccc2c1C(=O)CCC1(O)c3ccccc3C1C2 (stereo unspecified)
inactive: [1] > 100 µM | [2] > 100 µM

C/C(CC(=O)Nc1ccc(C)c(C)c1)=N\N(c1ccccc1)c1ccccc1
inactive: [1] 55.7 µM | [3] 13.3 µM | [2] 17.6 µM

O=c1c2cc(Br)ccc2nc(CNc2ccccc2)n1-c1ccccc1
inactive: [1] 9.02 µM | [3] 59 µM | [2] 25.8 µM

CC1CC(=O)C2CC(CO)=CCCC2C1(C)CC/C(=C/CO)CO (stereo unspecified)
inactive: [1] > 100 µM | [2] > 100 µM

CC1CN=C(Nc2ccc(F)c(Cl)c2)S1 (stereo unspecified)
inactive: [4] > 100 µM | [5] 88.9 µM | [6] > 100 µM | [7] > 100 µM | [8] > 100 µM

Clc1ccc(-c2nn3c(-c4ccncc4)nnc3s2)cc1
inactive: [4] > 100 µM | [5] > 100 µM | [6] > 100 µM | [7] > 100 µM | [8] 66.7 µM

C=CCOC1=C(OC(C)=O)C(C2COC(C)(C)O2)OC1=O (stereo unspecified)
inactive: [4] 29.7 µM | [5] 18.5 µM | [6] 33.4 µM | [7] 27.4 µM | [8] 17.1 µM

OC1(c2ccc(Cl)cc2)c2c(ccc3c2OCO3)C2=NCCN21 (stereo unspecified)
inactive: [4] 28.6 µM | [5] 31.7 µM | [6] 20.8 µM | [7] 32.3 µM | [8] 28.4 µM

BrC1=CCC23CC=C(Br)[C@H]4CC2(COC3)C[C@@H]1O4 (stereo partly specified)
inactive: [3] 59.3 µM | [2] 36.7 µM

CC(=O)OC1COC(n2c(=S)n(-c3ccccc3)c(=O)c3cc(Br)ccc32)C(OC(C)=O)C1OC(C)=O (stereo unspecified)
inactive: [3] > 100 µM | [2] 45.8 µM

O=C(N/C(=C\c1ccccc1)C1Nc2ccccc2C(=O)O1)c1ccccc1 (stereo unspecified)
inactive: [4] 23.7 µM | [5] > 100 µM | [6] 30.3 µM | [7] 21.5 µM | [8] 41.3 µM

COc1ccc(OC)c2sc(N3C(=O)/C(=C/c4cccc([N+](=O)[O-])c4)N=C3c3ccccc3)nc12
inactive: [4] 32.4 µM | [5] 22.3 µM | [6] 51.9 µM | [7] 48.5 µM | [8] > 100 µM

CCOC(=O)c1c(-c2ccc(Br)cc2)ccn1C
inactive: [4] > 10 µM | [5] > 10 µM | [6] > 10 µM | [7] > 10 µM | [8] > 10 µM

C=C(C)C(O)C(O)C[C@@H](C)C1CC[C@]23C[C@]12CCC1[C@@]2(C)CCC(OC(C)=O)C(C)(C)C2CC(OC2OC(CO)C(O)C(O)C2O)[C@]13C (stereo partly specified)
inactive: [4] 17.3 µM | [5] 17.4 µM | [6] 21 µM | [7] 14.5 µM | [8] 15 µM

Cn1c(O)c(C2=Nc3ccccc3C2=O)c2ccccc21
inactive: [4] > 100 µM | [5] > 100 µM | [6] > 100 µM | [7] > 100 µM | [8] > 100 µM

CCOC(=O)c1cc(C(=O)c2ccccc2)n2nc(-c3ccc(Cl)cc3)ccc12
inactive: [4] 48.8 µM | [5] 21.9 µM | [6] 17.5 µM | [7] 18.1 µM | [8] 36.2 µM

O=C(c1ccco1)C1CC(c2ccc3ccccc3c2O)=NN1 (stereo unspecified)
inactive: [4] 59.4 µM | [5] 92.7 µM | [6] > 100 µM | [7] > 100 µM | [8] 30.8 µM

CC(C)C(=O)OCC1OC(n2c(Br)nc3c(=O)[nH]c(N)nc32)C(OC(=O)C(C)C)C1OC(=O)C(C)C (stereo unspecified)
inactive: [4] 41 µM | [5] 54.8 µM | [6] 29 µM | [7] 35.5 µM | [8] > 100 µM

Cn1cc(-c2ccc3c4ccccc4n(C)c3c2)c2ccccc21
inactive: [3] > 100 µM
